Article PMC7316994, “In Vitro Pharmacological Profile of a New Small Molecule Bradykinin B2 Receptor Antagonist” (Frontiers in Pharmacology, 2020)
Like-named read-outs stand apart in the source and are kept apart here.

Experiments:
[1] = molecular target: T1, rat B2 receptor (Rattus norvegicus, UniProt P25023); assay: Ca^2+ mobilization assay, HEK293T cells; format: cell-based; settings: BK at EC80 4.32 nM
T1 construct: host or cells: HEK293T cells
T1 sequence (P25023 1-396): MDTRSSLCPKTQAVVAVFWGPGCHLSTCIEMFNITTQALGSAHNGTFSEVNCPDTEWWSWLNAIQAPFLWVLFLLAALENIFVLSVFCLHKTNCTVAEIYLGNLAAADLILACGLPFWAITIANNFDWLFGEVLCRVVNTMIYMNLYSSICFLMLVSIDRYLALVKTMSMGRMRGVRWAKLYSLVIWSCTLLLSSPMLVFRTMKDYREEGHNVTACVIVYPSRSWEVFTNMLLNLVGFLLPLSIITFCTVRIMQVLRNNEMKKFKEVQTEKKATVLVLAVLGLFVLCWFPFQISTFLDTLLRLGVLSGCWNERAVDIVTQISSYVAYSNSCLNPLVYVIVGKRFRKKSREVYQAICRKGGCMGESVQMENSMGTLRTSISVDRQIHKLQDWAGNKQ

[2] = test system: Benzodiazepine BZD (central); assay: radioligand binding (Table S2); settings: [3H] Flunitrazepam, Rat cerebral cortex
[3] = molecular target: T2, Bombesin BB1 (Homo sapiens, UniProt P28336); assay: radioligand binding (Table S2); settings: [125I] [Tyr4]-bombesin, Human recombinant CHO cells
T2 construct: host or cells: CHO cells

[4] = molecular target: T3, Corticotropin-releasing hormone receptor CRF1 (Homo sapiens, UniProt P34998); assay: radioligand binding (Table S2); settings: [125I] Sauvagine, Human recombinant CHO cells
T3 construct: host or cells: CHO cells

[5] = molecular target: T4, Dopamine transporter (Homo sapiens, UniProt Q01959); assay: radioligand binding (Table S2); settings: [3H] BTCP, Human recombinant CHO cells
T4 construct: host or cells: CHO cells

[6] = molecular target: T5, Endothelin ETB (Homo sapiens, UniProt P24530); assay: radioligand binding (Table S2); settings: [125I] Endothelin-1, Human recombinant CHO cells
T5 construct: host or cells: CHO cells

[7] = molecular target: T6, Glutamate, metabotropic, mGlu5 (Homo sapiens, UniProt P41594); assay: radioligand binding (Table S2); settings: [3H] Quisqualic acid, Human recombinant CHO-K1 cells
T6 construct: host or cells: CHO-K1 cells

[8] = molecular target: T7, Gonadotropin-releasing hormone (Homo sapiens, UniProt P30968); assay: radioligand binding (Table S2); settings: [125I] [D-Trp6]-LH-RH, Human recombinant Chem-1 cells
T7 construct: host or cells: Chem-1 cells

[9] = molecular target: T8, Growth hormone secretagogue (GHS, ghrelin) (Homo sapiens, UniProt Q92847); assay: radioligand binding (Table S2); settings: [125I] Ghrelin (human), Human recombinant CHO-K1 cells
T8 construct: host or cells: CHO-K1 cells

[10] = molecular target: T9, Histamine H2 (Homo sapiens, UniProt P25021); assay: radioligand binding (Table S2); settings: [125I] APT, Human recombinant CHO cells
T9 construct: host or cells: CHO cells

[11] = molecular target: T10, Melanocortin MC4 (Homo sapiens, UniProt P32245); assay: radioligand binding (Table S2); settings: [125I] NDP-α-MSH, Human recombinant CHO cells
T10 construct: host or cells: CHO cells

[12] = molecular target: T11, Melanocortin MC5 (Homo sapiens, UniProt P33032); assay: radioligand binding (Table S2); settings: [125I] NDP-α-MSH, Human recombinant CHO cells
T11 construct: host or cells: CHO cells

[13] = molecular target: T12, Melatonin MT1 (ML1A) (Homo sapiens, UniProt P48039); assay: radioligand binding (Table S2); settings: [125I] 2-iodomelatonin, Human recombinant CHO cells
T12 construct: host or cells: CHO cells

[14] = molecular target: T13, Norepinephrine transporter (Homo sapiens, UniProt P23975); assay: radioligand binding (Table S2); settings: [3H] Nisoxetine, Human recombinant CHO cells
T13 construct: host or cells: CHO cells

[15] = molecular target: T14, Opioid κ (KOP) (Rattus norvegicus, UniProt P34975); assay: radioligand binding (Table S2); settings: [3H] U 69593, Rat recombinant CHO cells
T14 construct: host or cells: CHO cells

[16] = molecular target: T15, Platelet-activating factor PAF (Homo sapiens, UniProt P25105); assay: radioligand binding (Table S2); settings: [3H] C16-PAF, Human recombinant CHO cells
T15 construct: host or cells: CHO cells

[17] = molecular target: T16, Serotonin 5-HT1B (Rattus norvegicus, UniProt P28564); assay: radioligand binding (Table S2); settings: [125I] CYP (+ 30 µM isoproterenol), Rat cerebral cortex
T16 construct: tissue Eurofins; host or cells: rat cerebral cortex

[18] = molecular target: T17, Serotonin 5-HT6 (Homo sapiens, UniProt P50406); assay: radioligand binding (Table S2); settings: [3H] LSD, Human recombinant CHO cells
T17 construct: host or cells: CHO cells

[19] = molecular target: T18, PDGFRα kinase (Homo sapiens, UniProt P16234); assay: enzyme assay (Table S2); format: biochemical; settings: ATP + Ulight-TK peptide (100 nM), LANCE
T18 construct: Eurofins (assay provider)

[20] = test system: panel of G protein-coupled receptors (GPCRs), ion channels, enzymes and transporters
[21] = test system: Caco-2 cell monolayer; settings: human, Caco-2, 60 min, 10 µM
[22] = molecular target: T19, B2 receptor (Homo sapiens, UniProt P30411); assay: [^3H]BK competition binding assay, CHO cell membranes; parameters: host or cells: CHO cells; settings: competition with 0.3 nM [^3H]BK
T19 sequence (P30411 1-391): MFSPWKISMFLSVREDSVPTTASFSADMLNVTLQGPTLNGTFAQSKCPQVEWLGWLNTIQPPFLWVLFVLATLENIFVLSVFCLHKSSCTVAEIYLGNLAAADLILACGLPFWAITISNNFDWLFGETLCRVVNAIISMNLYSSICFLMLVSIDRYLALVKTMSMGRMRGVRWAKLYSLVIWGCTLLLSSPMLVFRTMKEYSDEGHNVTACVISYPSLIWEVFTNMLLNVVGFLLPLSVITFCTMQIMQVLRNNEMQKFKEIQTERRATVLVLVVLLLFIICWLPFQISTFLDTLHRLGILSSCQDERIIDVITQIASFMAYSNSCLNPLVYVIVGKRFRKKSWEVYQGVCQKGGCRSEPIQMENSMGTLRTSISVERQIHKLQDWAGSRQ

[23] = molecular target: Angiotensine AT2 (Homo sapiens, UniProt P50052); assay: radioligand binding (Table S2); settings: read-out: % Inhibition @ 10 µM
[24] = molecular target: Muscarinic M3 (Homo sapiens, UniProt P20309); assay: radioligand binding (Table S2); settings: read-out: % Inhibition @ 10 µM

T3 sequence (P34998 24-415): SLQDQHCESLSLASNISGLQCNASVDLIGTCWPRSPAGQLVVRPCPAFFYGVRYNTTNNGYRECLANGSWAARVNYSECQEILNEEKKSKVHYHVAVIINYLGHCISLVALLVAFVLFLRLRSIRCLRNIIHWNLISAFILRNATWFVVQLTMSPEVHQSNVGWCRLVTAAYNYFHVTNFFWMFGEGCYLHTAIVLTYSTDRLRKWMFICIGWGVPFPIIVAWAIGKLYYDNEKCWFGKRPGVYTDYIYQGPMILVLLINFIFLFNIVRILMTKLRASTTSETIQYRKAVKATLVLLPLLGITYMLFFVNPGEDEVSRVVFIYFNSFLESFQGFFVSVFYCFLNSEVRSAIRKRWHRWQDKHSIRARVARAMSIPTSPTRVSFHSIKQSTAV
T6 sequence (P41594 21-1212): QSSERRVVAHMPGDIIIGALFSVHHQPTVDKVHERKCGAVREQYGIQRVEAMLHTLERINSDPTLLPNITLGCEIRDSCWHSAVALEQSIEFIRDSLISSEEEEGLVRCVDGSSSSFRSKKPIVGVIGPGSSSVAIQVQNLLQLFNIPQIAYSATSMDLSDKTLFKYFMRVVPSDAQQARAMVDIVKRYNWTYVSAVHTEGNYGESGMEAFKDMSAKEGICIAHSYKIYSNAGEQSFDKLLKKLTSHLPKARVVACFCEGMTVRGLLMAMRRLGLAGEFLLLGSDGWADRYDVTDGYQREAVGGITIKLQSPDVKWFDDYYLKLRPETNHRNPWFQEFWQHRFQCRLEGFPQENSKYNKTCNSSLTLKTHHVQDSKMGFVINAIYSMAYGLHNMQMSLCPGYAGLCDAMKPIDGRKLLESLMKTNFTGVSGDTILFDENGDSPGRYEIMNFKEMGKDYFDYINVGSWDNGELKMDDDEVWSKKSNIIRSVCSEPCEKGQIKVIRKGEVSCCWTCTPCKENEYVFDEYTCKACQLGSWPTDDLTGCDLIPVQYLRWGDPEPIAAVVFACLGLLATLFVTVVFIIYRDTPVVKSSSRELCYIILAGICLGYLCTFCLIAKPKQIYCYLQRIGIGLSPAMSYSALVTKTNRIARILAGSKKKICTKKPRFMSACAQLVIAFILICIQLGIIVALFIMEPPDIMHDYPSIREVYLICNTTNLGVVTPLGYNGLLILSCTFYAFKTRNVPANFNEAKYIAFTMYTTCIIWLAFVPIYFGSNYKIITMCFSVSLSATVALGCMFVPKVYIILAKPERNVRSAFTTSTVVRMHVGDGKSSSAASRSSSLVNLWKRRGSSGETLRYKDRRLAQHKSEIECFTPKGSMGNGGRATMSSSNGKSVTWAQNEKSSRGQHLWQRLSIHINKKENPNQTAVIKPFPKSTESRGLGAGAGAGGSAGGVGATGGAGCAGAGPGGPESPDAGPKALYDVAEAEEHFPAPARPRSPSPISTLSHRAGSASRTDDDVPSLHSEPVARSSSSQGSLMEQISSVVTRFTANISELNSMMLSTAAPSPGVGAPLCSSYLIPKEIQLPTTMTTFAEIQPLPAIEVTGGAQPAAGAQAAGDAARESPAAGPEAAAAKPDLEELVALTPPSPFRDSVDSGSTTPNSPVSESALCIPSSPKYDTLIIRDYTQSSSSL
T5 sequence (P24530 27-442): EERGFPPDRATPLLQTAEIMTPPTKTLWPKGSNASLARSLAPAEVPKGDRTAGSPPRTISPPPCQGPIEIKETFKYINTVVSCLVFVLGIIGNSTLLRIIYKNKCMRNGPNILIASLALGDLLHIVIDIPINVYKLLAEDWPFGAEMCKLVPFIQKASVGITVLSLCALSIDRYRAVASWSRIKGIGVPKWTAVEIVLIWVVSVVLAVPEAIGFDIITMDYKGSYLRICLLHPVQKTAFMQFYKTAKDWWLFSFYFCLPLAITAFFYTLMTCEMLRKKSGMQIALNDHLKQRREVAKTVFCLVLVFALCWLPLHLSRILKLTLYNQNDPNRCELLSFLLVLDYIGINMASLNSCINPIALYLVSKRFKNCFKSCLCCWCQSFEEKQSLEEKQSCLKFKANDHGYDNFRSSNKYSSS
T12 sequence (P48039 whole entry): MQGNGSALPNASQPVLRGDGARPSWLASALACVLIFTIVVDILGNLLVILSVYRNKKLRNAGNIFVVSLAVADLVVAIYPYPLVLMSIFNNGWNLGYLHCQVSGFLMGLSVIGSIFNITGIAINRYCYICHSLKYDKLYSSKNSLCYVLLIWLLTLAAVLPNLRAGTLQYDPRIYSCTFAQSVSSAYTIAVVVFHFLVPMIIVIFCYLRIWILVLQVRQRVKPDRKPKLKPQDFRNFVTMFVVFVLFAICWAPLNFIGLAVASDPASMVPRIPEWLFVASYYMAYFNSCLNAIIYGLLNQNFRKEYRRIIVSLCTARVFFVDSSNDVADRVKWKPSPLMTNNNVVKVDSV
T2 sequence (P28336 whole entry): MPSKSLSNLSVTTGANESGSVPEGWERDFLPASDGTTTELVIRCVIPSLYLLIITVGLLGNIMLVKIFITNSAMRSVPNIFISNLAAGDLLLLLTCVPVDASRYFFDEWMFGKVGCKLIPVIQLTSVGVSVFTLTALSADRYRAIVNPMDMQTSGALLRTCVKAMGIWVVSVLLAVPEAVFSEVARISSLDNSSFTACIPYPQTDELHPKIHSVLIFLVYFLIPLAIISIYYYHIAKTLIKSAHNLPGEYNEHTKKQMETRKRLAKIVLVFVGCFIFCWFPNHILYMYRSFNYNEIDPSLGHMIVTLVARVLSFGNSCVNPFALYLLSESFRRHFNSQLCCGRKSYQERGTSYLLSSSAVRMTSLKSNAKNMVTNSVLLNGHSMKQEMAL
T9 sequence (P25021 whole entry): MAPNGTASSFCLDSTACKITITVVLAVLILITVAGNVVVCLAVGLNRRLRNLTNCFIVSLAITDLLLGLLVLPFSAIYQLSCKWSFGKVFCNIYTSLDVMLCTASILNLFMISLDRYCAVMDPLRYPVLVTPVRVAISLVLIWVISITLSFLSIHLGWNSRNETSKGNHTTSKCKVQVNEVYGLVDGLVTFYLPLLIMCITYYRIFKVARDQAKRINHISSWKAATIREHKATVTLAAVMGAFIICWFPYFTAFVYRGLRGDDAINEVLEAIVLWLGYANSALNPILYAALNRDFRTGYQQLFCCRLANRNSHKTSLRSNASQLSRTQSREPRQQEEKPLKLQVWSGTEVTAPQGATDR
T7 sequence (P30968 whole entry): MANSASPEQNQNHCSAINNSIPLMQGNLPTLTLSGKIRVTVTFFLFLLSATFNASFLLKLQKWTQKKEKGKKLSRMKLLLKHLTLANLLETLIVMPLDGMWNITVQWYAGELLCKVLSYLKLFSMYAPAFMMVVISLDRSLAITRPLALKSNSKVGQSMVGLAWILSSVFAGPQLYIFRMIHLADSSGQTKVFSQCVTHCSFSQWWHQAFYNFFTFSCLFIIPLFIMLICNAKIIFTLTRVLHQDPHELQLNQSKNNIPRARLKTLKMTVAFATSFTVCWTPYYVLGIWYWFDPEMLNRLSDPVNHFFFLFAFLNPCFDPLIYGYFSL
T11 sequence (P33032 whole entry): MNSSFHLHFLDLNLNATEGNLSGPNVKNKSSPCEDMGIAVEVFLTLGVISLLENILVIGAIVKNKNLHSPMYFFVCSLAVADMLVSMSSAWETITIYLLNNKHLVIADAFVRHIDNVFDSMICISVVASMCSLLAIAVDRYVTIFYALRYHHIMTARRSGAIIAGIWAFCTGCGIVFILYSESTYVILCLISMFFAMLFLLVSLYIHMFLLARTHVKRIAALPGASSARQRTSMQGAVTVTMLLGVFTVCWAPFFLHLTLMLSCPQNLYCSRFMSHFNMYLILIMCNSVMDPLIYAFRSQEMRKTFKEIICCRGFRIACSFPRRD
T14 sequence (P34975 whole entry): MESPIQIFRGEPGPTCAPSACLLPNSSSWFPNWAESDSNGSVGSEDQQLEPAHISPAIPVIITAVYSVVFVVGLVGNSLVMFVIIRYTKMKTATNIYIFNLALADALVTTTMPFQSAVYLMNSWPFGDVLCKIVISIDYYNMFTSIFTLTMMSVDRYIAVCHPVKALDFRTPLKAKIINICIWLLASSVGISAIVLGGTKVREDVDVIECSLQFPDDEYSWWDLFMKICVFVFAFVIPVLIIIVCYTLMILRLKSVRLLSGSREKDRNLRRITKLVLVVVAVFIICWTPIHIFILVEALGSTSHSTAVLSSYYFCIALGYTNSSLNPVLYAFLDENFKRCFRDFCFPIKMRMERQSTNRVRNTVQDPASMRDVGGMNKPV
Sequence of Angiotensine AT2 (P50052 whole entry): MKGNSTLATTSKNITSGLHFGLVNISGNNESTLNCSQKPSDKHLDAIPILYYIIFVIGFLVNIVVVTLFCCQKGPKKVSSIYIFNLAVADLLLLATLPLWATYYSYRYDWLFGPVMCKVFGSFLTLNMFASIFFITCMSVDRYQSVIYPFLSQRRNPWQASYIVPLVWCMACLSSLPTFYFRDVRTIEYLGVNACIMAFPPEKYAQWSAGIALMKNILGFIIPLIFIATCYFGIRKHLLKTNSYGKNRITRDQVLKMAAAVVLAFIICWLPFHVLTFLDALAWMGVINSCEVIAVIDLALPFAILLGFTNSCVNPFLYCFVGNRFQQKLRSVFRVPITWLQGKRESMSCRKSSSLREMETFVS
T8 sequence (Q92847 whole entry): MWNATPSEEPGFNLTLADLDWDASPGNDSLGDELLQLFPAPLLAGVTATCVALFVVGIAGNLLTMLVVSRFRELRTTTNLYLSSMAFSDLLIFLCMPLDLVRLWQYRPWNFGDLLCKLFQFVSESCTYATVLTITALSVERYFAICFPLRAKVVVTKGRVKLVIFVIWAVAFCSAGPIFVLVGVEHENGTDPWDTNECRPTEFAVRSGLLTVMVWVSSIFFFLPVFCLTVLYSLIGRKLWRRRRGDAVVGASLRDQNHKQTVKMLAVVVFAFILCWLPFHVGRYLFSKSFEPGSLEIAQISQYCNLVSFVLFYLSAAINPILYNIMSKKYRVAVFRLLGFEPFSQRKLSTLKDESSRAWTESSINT

## Cc1cc(-c2ncnn2C)c2cccc(OCc3c(Cl)cc(F)cc3[C@H](C)NC(=O)COC(F)F)c2n1 [Compound 3, (S)-N-(1-(3-chloro-5-fluoro-2-((2-methyl-4-(1-methyl-1H-1,2,4-triazol-5-yl)quinolin-8-yloxy)methyl)phenyl)ethyl)-2-(difluoromethoxy)acetamide]
[1]
  IC50: 1030 nM
  Kb: 147 nM
[2]
  % Inhibition @ 10 µM: -25.8%
[3]
  inhibition at 10 µM: 6.7%
[4]
  % Inhibition @ 10 µM: 74%
  inhibition at 10 µM: 73.5%
[5]
  inhibition at 10 µM: 2.2%
[6]
  inhibition at 10 µM: 7.2%
[7]
  inhibition at 10 µM: -8%
[8]
  inhibition at 10 µM: 5%
[9]
  inhibition at 10 µM: 6%
[10]
  inhibition at 10 µM: -26.5%
[11]
  inhibition at 10 µM: 7.1%
[12]
  inhibition at 10 µM: -9.6%
[13]
  inhibition at 10 µM: 15.3%
[14]
  inhibition at 10 µM: 0.9%
[15]
  inhibition at 10 µM: 15.4%
[16]
  inhibition at 10 µM: 25%
[17]
  inhibition at 10 µM: -2.5%
[18]
  inhibition at 10 µM: -4.5%
[19]
  inhibition at 10 µM: -2.6%
[20]; 10 μM, most targets incl. bradykinin B1 and angiotensin AT1, except V1a, CRF1, EP1, TP, NK1
  inhibition of binding or functional activity at most targets: < 50%
[20]; full concentration-response curves, agonist mode
  agonism at V1a, CRF1, TP, NK1, NK3: no agonism
[21]
  Caco-2 AB, apparent permeation rate apical to basolateral direction: > 10^-5 cm/s
[22]; arithmetic mean, read-out: IC50 (nM) Mean
  IC50: 0.97 nM
[22]; arithmetic mean, read-out: Ki (nM) Mean
  Ki: 0.5 nM
[22]; geometric mean, read-out: IC50 (nM) Geometric mean
  IC50: 0.97 nM
[22]; geometric mean, read-out: Ki (nM) Geometric mean
  Ki: 0.5 nM
[23]
  inhibition at 10 µM: 3.5%
[24]
  inhibition at 10 µM: 4.2%
